# Test results as given in ChEMBL document CHEMBL5215012, “Daphnepedunins A-F, Anti-HIV Macrocyclic Daphnane Orthoester Diterpenoids from Daphne pedunculata” (J Nat Prod, 2022).
# Assays:
# [1] = tested on: Human immunodeficiency virus 1; test: Anti-HIV activity against HIV-1 NL4-3 Nanoluc-sec virus infected in human MT4 cells assessed as viral growth inhibition by measuring luciferase activity measured after 3 days post-infection by Nano-Glo luciferase assay; format: functional, organism-based; settings: Human immunodeficiency virus 1, NL4-3, MT4, 72 h
# MT4 = test: Cytotoxicity against human MT4 cells assessed as reduction in cell viability by celltiter-glo luminescent cell viability assay; format: toxicity, cell-based
Structure (SMILES),IC50 [1] [µM],CC50 (MT4) [µM]
C=C(C)[C@]12C[C@@H](C)[C@]34OC5(CCCCCCC[C@H](C)[C@@H]6[C@@H]3[C@@](O)(C(=O)[C@@]6(C)O)[C@H](O)[C@@]3(CO)O[C@H]3[C@H]4[C@H]1O5)O2,0.107,24.2
C=C(C)[C@]12C[C@@H](C)[C@]34OC5(CCCCCCC[C@H](C)[C@@H]6[C@@H]3[C@]3(O[C@]6(C)OC3=O)[C@H](O)[C@@]3(CO)O[C@H]3[C@H]4[C@H]1O5)O2,0.187,> 38.5
C=C(C)[C@]12C[C@@H](C)[C@@]34O[C@]5(CCCCCCC[C@H](C)[C@H]6[C@H](C)C(=O)[C@@](O)([C@H](O)[C@@]7(CO)O[C@H]7[C@H]3[C@H]1O5)[C@@H]64)O2,0.0817,–
C=C(C)[C@]12C[C@@H](C)[C@@]34OC5(CCCCCCCC[C@H]6[C@H](C)C(=O)[C@@](O)([C@H](O)[C@@]7(CO)O[C@H]7[C@H]3[C@H]1O5)[C@@H]64)O2,0.0363,> 6.5
C=C(C)[C@]12C[C@@H](COC(=O)c3ccccc3)[C@]34OC5(CCCCC[C@@H](OC(=O)c6ccccc6)C[C@@H](C)[C@@H]6[C@@H]3[C@]3(O[C@]6(C)OC3=O)[C@H](O)[C@@]3(CO)O[C@H]3[C@H]4[C@H]1O5)O2,0.423,5.3
C=C(C)[C@]12C[C@@H](C)[C@]34OC5(CCCCCCC[C@@H](C)[C@@H]6[C@@H]3[C@@](O)(C(=O)[C@@]6(C)O)[C@H](O)[C@@]3(CO)O[C@H]3[C@H]4[C@H]1O5)O2,0.0919,> 6.5
C=C(C)[C@]12C[C@@H](COC(=O)c3ccccc3)[C@]34OC5(CCCCCCC[C@@H](C)[C@@H]6[C@@H]3[C@]3(O[C@]6(C)OC3=O)[C@H](O)[C@@]3(CO)O[C@H]3[C@H]4[C@H]1O5)O2,0.994,21.7
C=C(C)[C@]12C[C@@H](COC(=O)c3ccccc3)[C@]34OC5(CCCCCCC[C@H](C)[C@@H]6[C@@H]3[C@]3(O[C@]6(C)OC3=O)[C@H](O)[C@@]3(CO)O[C@H]3[C@H]4[C@H]1O5)O2,0.93,18.8
C=C(C)[C@]12C[C@@H](COC(=O)c3ccccc3)[C@@]34OC5(CCCCCCC[C@@H](C)[C@H]6[C@H](C)C(=O)[C@@](O)([C@H](O)[C@@]7(CO)O[C@H]7[C@H]3[C@H]1O5)[C@@H]64)O2,0.071,> 38.5
C=C(C)[C@]12C[C@@H](COC(=O)c3ccccc3)[C@@]34OC5(O[C@@H]1[C@@H]3[C@@H]1O[C@]1(CO)[C@@H](O)[C@@]1(O)[C@H]4[C@H]([C@H](C)[C@@H]1OC(=O)c1ccccc1)[C@H](C)CCCCCC[C@H]5O)O2,0.00015,> 6.5
C=C(C)[C@]12C[C@@H](C)[C@@]34OC5(CCCCCCC[C@@H](C)[C@H]6[C@H](C)C(=O)[C@@](O)([C@H](O)[C@@]7(CO)O[C@H]7[C@H]3[C@H]1O5)[C@@H]64)O2,0.0385,> 6.5
C=C(C)[C@]12C[C@@H](COC(=O)c3ccccc3)[C@@]34OC5(CCCCC[C@@H](O)C[C@@H](C)[C@H]6[C@H](C)C(=O)[C@@](O)([C@H](O)[C@@]7(CO)O[C@H]7[C@H]3[C@H]1O5)[C@@H]64)O2,0.0692,> 6.5
C=C(C)[C@]12C[C@@H](C)[C@]34OC5(CCCCCCC[C@@H](C)[C@@H]6[C@@H]3[C@]3(O[C@]6(C)OC3=O)[C@H](O)[C@@]3(CO)O[C@H]3[C@H]4[C@H]1O5)O2,0.229,–
